Experimental findings from patent US8895504B2, “Amylin derivatives” (priority 2008, dated 2014) are described below.

For data set [1], the target named is T1, Amylin 3(a) receptor (human calcitonin receptor (CTa) and RAMP-3) (Homo sapiens, UniProt O60896+P30988).
T1 construct: expressed in transfected cells; host or cells: BHK570 cells, stably transfected with a CRE-luciferase reporter
Put plainly: Luciferase assay (III), BHK Amylin 3(a)//CRE-luc cells. Particulars: BHK cells with Amylin 3(a) receptor and CRE luciferase reporter, 4 hours incubation; read-out: Potency Luciferase. The format is cell-based. In outline: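 BHK570 cells stably expressing CTa, RAMP-3 and a CRE-luciferase reporter, seeded at about 20,000 cells/well and grown overnight. Cells were exposed to standard or sample for 4 h at 37° C in phenol red-free DMEM with 10% FBS and 10 mM Hepes, pH 7,4. Luminescence was read after 30 min LucLite at room temperature.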

The nature of data set [2]: Assay (V) PK - determination of T½ in mini-pig. The format is in vivo. To be noted: minipig, sc; terminal plasma half-life, subcutaneous, approx 2 nmol/kg, male Göttingen mini-pigs. The procedure: Assay (V) PK—Determination OF T½ in Mini-Pig
T½ is the terminal half-life=ln 2/λz of a compound in plasma. λz is the first order rate constant associated with the terminal (log-linear) portion of the plasma concentration-time curve and is estimated by linear regression of time vs. log concentration.
T½ values of the amylin analogues of the invention is determined by pharmacokinetic studies in male Göttingen mini-pigs from Ellegaard Göttingen Minipigs ApS and the principles of laboratory animal care are followed.
An acclimatization period of approximately 6-10 days was allowed before the animals entered the study. At start of the acclimatization period the mini-pigs were about 5 to 12 months old and in the weight range of 7-35 kg. The mini-pigs had two central venous catheters inserted which were used for blood sampling.
The studies were conducted in an animal room which was illuminated to give a cycle of approx 12 hours light and 12 hours darkness. The animals were housed individually.
The animals had free access to domestic quality drinking water during the study, but were typically fasted from overnight before dosing until approx 6-12 hours after dosing. The animals were weighed on arrival and on the days of dosing.
In the present studies the test substances were administered subcutaneously in approx 2 nmol/kg dose. The animals received a single subcutaneous injection. The subcutaneous injection was given on the right side of the neck, approximately 5-7 cm from the ear and 7-9 cm from the middle of the neck. The injections were given with a stopper on the needle, allowing approx 0.5 cm of the needle to be introduced. Each test substance was given to typically three but in some cases two or four animals.
A full plasma concentration-time profile, employing 12-16 sampling points, was obtained from each animal. In example blood samples were collected according to the following schedule:
After subcutaneous administration:
Predose (0), 0.5, 1, 2, 4, 6, 8, 12, 24, 48, 72, 96, 120, 168 and 240 hours after injection. In some cases also additional blood samples up to 288 hours post injection were taken.
At each sampling time, 0.5 to 2 ml of blood was drawn from each animal. The blood samples were taken via the central venous catheter.
The blood samples were collected into EDTA test tubes (i.e. Sarstedt Micro tube 1.3 mL K3E). Blood samples were kept on ice for max 20 min. before centrifugation. Plasma was separated using centrifugation (i.e. at 4° C., 10 min., 1500 G) and was immediately transferred to Micronic tubes. Approximately 200 μl plasma was transferred to each Micronic tube. The plasma was stored at −20° C. until assayed. The plasma samples were assayed for the content of amylin using an ELISA assay.
The plasma concentration-time profiles were analysed by a non-compartmental pharmacokinetic analysis (NCA) using WinNonlin Professional 5.0 (Pharsight Inc., Mountain View, Calif., USA). NCA was performed using the individual plasma concentration-time profiles from each animal. T½ is the terminal half-life=ln 2/λz and was determined from λz, the first order rate constant associated with the terminal (log-linear) portion of the curve, estimated by linear regression of time vs. log concentration.
ELISA Plasma Assay for Amylin Quantification
The human amylin ELISA is a monoclonal antibody-based sandwich immunoassay for determining amylin levels in human plasma. The capture antibody recognizes human amylin, amylin acid (deamidated amylin), a 1-20 fragment of amylin, but not reduced amylin.
The detection antibody binds to reduced or unreduced human amylin but not amylin acid and is complexed with streptavidin-alkaline phosphatase. The substrate, 4-methylumbelliferyl phosphate, is applied to the completed sandwich and the fluorescent signal, monitored at 355 nm/460 nm, is proportional to the amount of amylin present in the sample.

For data set [3], the system named is food intake. In words: Pharmacological Assay (I) - efficacy testing on appetite, ad libitum fed rat model. The format is in vivo, Sprague Dawley (SD) rats. To be noted: 30 nmol/kg vs vehicle, ad libitum fed rats, n=5-7, 0-48 hours. The source says:
Assays Pharmacological Assay (I)—Experimental Protocol for Efficacy Testing on Appetite with an Amylin Derivative, Using an Ad Libitum Fed Rat Model. Sprague Dawley (SD) rats from Taconic Europe, Denmark are used for the experiments. The rats have a body weight 200-250 g at the start of experiment. The rats arrive at least 10-14 days before start of experiment to allow acclimatization to experimental settings. During this period the animals are handled at least 2 times. After arrival rats are housed individually for one week in a reversed light/dark phase (meaning that lights are off during daytime and on during nighttime) for two weeks. Since rats are normally active and eat their major part of their daily food intake during the dark period, rats are dosed in the morning right before lights are turned off. This set-up results in the lowest data variation and highest test sensitivity. The experiment is conducted in the rats' home cages and rats have free access to food and water throughout the acclimatization period and the experiment period. Each dose of derivative is tested in a group of 5-8 rats. A vehicle group of 6-8 rats is included in each set of testing. Rats are dosed once according to body weight with a 0.01-3 mg/kg solution administered intraperitoneally (ip), orally (po) or subcutaneously (sc). The time of dosing is recorded for each group. After dosing, the rats are returned to their home cages, where they then have access to food and water. The food consumption is recorded individually continuously by on-line registration or manually every hour for 7 hours, and then after 24 h and sometimes 48 h. At the end of the experimental session, the animals are euthanized. The individual data are recorded in Microsoft excel sheets. Outliers are excluded after applying the Grubbs statistical evaluation test for outliers, and the result is presented graphically using the GraphPad Prism program.

*1 amine or outer side, *2 acyl side, *3 side chain or, on linkers, in order; H or OH if unused. Where a SMILES comes first, the peptide text is derived from it. Bridges are numbered along the chain shown (N, C = ends). The star is where a group is joined. C20 diacid = O=C(O)CCCCCCCCCCCCCCCCCCC(=O)*; C18 diacid = O=C(O)CCCCCCCCCCCCCCCCC(=O)*; γGlu = O=C(O)[C@H](CCC(=O)[*:2])N[*:1]

T1 sequence (O60896 24-148): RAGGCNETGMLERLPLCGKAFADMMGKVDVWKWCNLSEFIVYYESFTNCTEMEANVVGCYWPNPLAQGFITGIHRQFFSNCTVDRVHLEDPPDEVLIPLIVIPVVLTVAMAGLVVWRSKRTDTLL
T1 sequence (P30988 25-474): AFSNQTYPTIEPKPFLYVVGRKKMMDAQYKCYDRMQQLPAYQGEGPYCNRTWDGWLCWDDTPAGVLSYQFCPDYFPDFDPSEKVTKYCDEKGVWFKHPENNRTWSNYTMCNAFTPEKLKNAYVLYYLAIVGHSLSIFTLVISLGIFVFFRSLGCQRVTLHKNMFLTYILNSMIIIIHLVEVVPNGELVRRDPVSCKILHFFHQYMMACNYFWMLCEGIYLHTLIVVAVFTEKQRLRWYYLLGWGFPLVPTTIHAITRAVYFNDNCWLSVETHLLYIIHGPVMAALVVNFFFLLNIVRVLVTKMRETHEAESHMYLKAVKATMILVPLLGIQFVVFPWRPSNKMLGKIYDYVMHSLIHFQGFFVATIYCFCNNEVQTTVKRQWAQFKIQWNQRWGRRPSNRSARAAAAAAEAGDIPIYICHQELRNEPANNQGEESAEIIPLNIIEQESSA

One may read the half-life as how long it takes for the measured level to halve. Read a high half-life as slow decline. As for `CC[C@H](C)[C@H](NC(=O)[C@@H]1CCCN1C(=O)CNC(=O)[C@H](Cc1ccccc1)NC(=O)[C@H](CC(N)=O)NC(=O)[C@H](CC(N)=O)NC(=O)[C@H](CO)NC(=O)[C@H](CO)NC(=O)[C@H](Cc1c[nH]cn1)NC(=O)[C@H](Cc1c[nH]cn1)NC(=O)[C@H](CC(C)C)NC(=O)[C@H](Cc1ccccc1)NC(=O)[C@H](CC(N)=O)NC(=O)[C@H](C)NC(=O)[C@H](CC(C)C)NC(=O)[C@H](CCCNC(=N)N)NC(=O)[C@H](CCC(N)=O)NC(=O)[C@@H](NC(=O)[C@H](C)NC(=O)[C@@H]1CSSC[C@H](NC(=O)[C@H](Cc2c[nH]cn2)NC(=O)[C@H](Cc2c[nH]cn2)NC(=O)CC[C@H](NC(=O)CCCCCCCCCCCCCCCCC(=O)O)C(=O)O)C(=O)N[C@@H](CC(N)=O)C(=O)N[C@@H]([C@@H](C)O)C(=O)N[C@@H](C)C(=O)N[C@@H]([C@@H](C)O)C(=O)N1)[C@@H](C)O)C(=O)N[C@@H](CC(C)C)C(=O)N1CCC[C@H]1C(=O)N1CCC[C@H]1C(=O)N[C@H](C(=O)N[C@@H](CC(N)=O)C(=O)N[C@H](C(=O)NCC(=O)N[C@@H](CO)C(=O)N[C@@H](CC(N)=O)C(=O)N[C@H](C(=O)N[C@@H](Cc1ccc(O)cc1)C(N)=O)[C@@H](C)O)C(C)C)[C@@H](C)O` [Example 31, N-alpha-[(S)-4-Carboxy-4-(17-carboxyheptadecanoylamino)butyryl]-His-[His1,His17]-pramlintide] ({C18 diacid-γGlu}-HHCNTATCATQRLANFLHHSSNNFGPILPPTNVGSNTY-NH2; disulfide 3-8), the EC50 in data set [1] was determined as 0.02 nM. Moreover, in data set [2], the half-life was 41 h. Besides, in data set [3], the “food intake over a period of 48 hours” value is “effectively reducing food intake”.
Regarding `CC[C@H](C)[C@H](NC(=O)[C@@H]1CCCN1C(=O)CNC(=O)[C@H](Cc1ccccc1)NC(=O)[C@H](CC(N)=O)NC(=O)[C@H](CC(N)=O)NC(=O)[C@H](CO)NC(=O)[C@H](CO)NC(=O)[C@H](Cc1c[nH]cn1)NC(=O)[C@H](Cc1c[nH]cn1)NC(=O)[C@H](CC(C)C)NC(=O)[C@H](Cc1ccccc1)NC(=O)[C@H](CC(N)=O)NC(=O)[C@H](C)NC(=O)[C@H](CC(C)C)NC(=O)[C@H](CCCNC(=N)N)NC(=O)[C@H](CCC(N)=O)NC(=O)[C@@H](NC(=O)[C@H](C)NC(=O)[C@@H]1CSSC[C@H](NC(=O)[C@H](Cc2c[nH]cn2)NC(=O)[C@H](Cc2c[nH]cn2)NC(=O)CC[C@H](NC(=O)CCCCCCCCCCCCCCCCCCC(=O)O)C(=O)O)C(=O)N[C@@H](CC(N)=O)C(=O)N[C@@H]([C@@H](C)O)C(=O)N[C@@H](C)C(=O)N[C@@H]([C@@H](C)O)C(=O)N1)[C@@H](C)O)C(=O)N[C@@H](CC(C)C)C(=O)N1CCC[C@H]1C(=O)N1CCC[C@H]1C(=O)N[C@H](C(=O)N[C@@H](CC(N)=O)C(=O)N[C@H](C(=O)NCC(=O)N[C@@H](CO)C(=O)N[C@@H](CC(N)=O)C(=O)N[C@H](C(=O)N[C@@H](Cc1ccc(O)cc1)C(N)=O)[C@@H](C)O)C(C)C)[C@@H](C)O` [Example 27, N-alpha-[(S)-4-Carboxy-4-(19-carboxynonadecanoylamino)butyryl]-His-[His1,His17]-pramlintide] ({C20 diacid-γGlu}-HHCNTATCATQRLANFLHHSSNNFGPILPPTNVGSNTY-NH2; disulfide 3-8), in data set [1], the EC50 stood at 0.1 nM. Further, in data set [2], the half-life was 64 h. Also, the “food intake over a period of 48 hours” value in data set [3] is on record as “effectively reducing food intake”.
Turning to `CC[C@H](C)[C@H](NC(=O)[C@@H]1CCCN1C(=O)CNC(=O)[C@H](Cc1ccccc1)NC(=O)[C@H](CC(N)=O)NC(=O)[C@H](CC(N)=O)NC(=O)[C@H](CO)NC(=O)[C@H](CO)NC(=O)[C@H](CCCNC(=N)N)NC(=O)[C@H](Cc1c[nH]cn1)NC(=O)[C@H](CC(C)C)NC(=O)[C@H](Cc1ccccc1)NC(=O)[C@H](CC(N)=O)NC(=O)[C@H](C)NC(=O)[C@H](CC(C)C)NC(=O)[C@H](CCCNC(=N)N)NC(=O)[C@H](CCC(N)=O)NC(=O)[C@@H](NC(=O)[C@H](C)NC(=O)[C@@H]1CSSC[C@H](NC(=O)[C@H](Cc2c[nH]cn2)NC(=O)[C@H](Cc2c[nH]cn2)NC(=O)CC[C@H](NC(=O)CCCCCCCCCCCCCCCCCCC(=O)O)C(=O)O)C(=O)N[C@@H](CC(N)=O)C(=O)N[C@@H]([C@@H](C)O)C(=O)N[C@@H](C)C(=O)N[C@@H]([C@@H](C)O)C(=O)N1)[C@@H](C)O)C(=O)N[C@@H](CC(C)C)C(=O)N1CCC[C@H]1C(=O)N1CCC[C@H]1C(=O)N[C@H](C(=O)N[C@@H](CC(N)=O)C(=O)N[C@H](C(=O)NCC(=O)N[C@@H](CO)C(=O)N[C@@H](CC(N)=O)C(=O)N[C@H](C(=O)N[C@@H](Cc1ccc(O)cc1)C(N)=O)[C@@H](C)O)C(C)C)[C@@H](C)O` [Example 47, N-alpha-[(S)-4-Carboxy-4-(19-carboxynonadecanoylamino)butyryl]-His-[His1,His17,Arg18]-pramlintide] ({C20 diacid-γGlu}-HHCNTATCATQRLANFLHRSSNNFGPILPPTNVGSNTY-NH2; disulfide 3-8), the EC50 in data set [1] was determined as 0.2 nM. This molecule also gave a half-life in data set [2] of 30 h. For the same molecule, the “food intake over a period of 48 hours” value in data set [3] is “effectively reducing food intake”.
